Here are results for one molecule from patent US20230271969A1, “NITROGEN-CONTAINING FUSED RING DERIVATIVE INHIBITOR, PREPARATION METHOD THEREFOR AND USE THEREOF” (Shanghai Hansoh Biomedical Co., Ltd., priority 2020, published 2023).

For this assay, the system named is Senktide-induced bilateral ovariectomy rats. The experiment in a line: Tail skin temperature in a Senktide-induced bilateral ovariectomy rat model. The assay is classed as in vivo. The settings on record: OVX SD rats, oral 30 mg/kg, 30 min before s.c. Senktide, tail skin temperature over 75 min. The text has this:
Pharmacodynamic Study of the Test Compounds on Tail Skin Temperature in a Senktide-Induced Bilateral Ovariectomy Rat Model
To evaluate the effect of the test compounds on tail skin temperature in Senktide-induced bilateral ovariectomy rats.
2.3. Experimental Animals • Ten-Week-old female bilateral ovariectomy SD rats were purchased from Beijing Vital River Laboratory Animal Technology Co., Ltd. The animals were housed in a SPF grade animal facility with 5 SD rats per cage. The cages, bedding, feed and water were disinfected at high temperatures before use. All animals had free access to food and water.
Ten-week-old female SD rats were subjected to bilateral ovariectomy and recovered for two weeks, and then randomly divided into negative control group, model group and drug administration group (8 rats per group), based on body weight. The probe was attached to the dorsal surface of the rat tail with medical tape, 1-2 cm away from the tailhead of the rat.
The vehicle was administered orally to the negative control group and the model group, and different test compounds were administered orally to each drug administration group at a dose of 30 mg/kg and a volume of 10 mL/kg.
Thirty minutes after the oral administration of the vehicle or test compound, the negative control group was injected subcutaneously with normal saline (at a volume of 5 mL/kg); the model group and each drug administration group were injected subcutaneously with 0.2 mg/mL of Senktide (at a volume of 5 mL/kg) to induce the hot flashes-like symptom.
The change in tail skin temperature (ΔTST) at each time point relative to time point 0 was calculated, the ΔTST-time curve of the change in tail skin temperature was plotted, and the area under curve (AUCΔTST) was calculated. ΔTST=TSTn−TST0, TST0 is the tail skin temperature at 0 minute before the subcutaneous injection of normal saline or Senktide; TSTn is the tail skin temperature at the n minute after the subcutaneous injection.
AUCΔTST=Σ(ΔTSTn+ΔTSTn+5)*5/2

Consider `[2H]c1cc(C(=O)N2CCn3c(-c4nc(Cl)ns4)nnc3[C@H]2C)ccc1F` [Example 56, (R)-(3-(3-Chloro-1,2,4-thiadiazol-5-yl)-8-methyl-5,6-dihydro-[1,2,4]triazolo[4,3-a]pyrazin-7(8H)-yl)(4-fluorophenyl-3-d)methanone], for which the AUCΔTST came to 53.8 ± 19.8 °C · min.
